Results taken from patent US9304132B2, “Molecular delivery with nanowires” (President and Fellows of Harvard College, priority 2009, dated 2016).

What was measured:
Format in all cases: cell-based
[1] = test system: neural precursor cells (NPCs); test: Control over growth and differentiation of neural precursor cells on Ara-C coated Si NWs (immunofluorescence)
Method: Si NWs were grown on a Si substrate via CVD. Substrates were first prepared by immobilizing Au nanoparticles on a precleaned Si (111) substrate using a thin polyelectrolyte layer as previously described (J. Am. Chem. Soc. 2008, 130, 6252-6258; Nano Lett. 2004, 4, 1987-1990; J. Am. Chem. Soc. 2001, 123, 9769-9779; J. Am. Chem. Soc. 2008, 130, 6252-6258). Si NWs were then synthesized by the vapor transport method using SiCl4 as the precursor for Si NW growth and H2 (10%) in argon as the carrier gas with minor modifications from that which was previously reported (Nano Lett. 2005, 5, 457-460). Briefly, a Si (111) substrate, covered with Au nanoparticles patterned into stripes by flowing a solution of 70 nm Au nanoparticles across poly-l-lysine coated silicon using PDMS microfluidic channels, was placed inside a 1″ diameter quartz tube and loaded at the center of a 12″ horizontal tube furnace (Lindberg/Blue M). After the quartz tube was evacuated and flushed repeatedly with H2 (10%) in argon gas mixture to minimize oxygen contamination, it was charged with H2 (10%) in argon gas up to 760 torr and the pump line was quickly replaced with a line that enabled venting through a bubbler filled with a saturated K2CO3 aqueous solution, meant to trap the byproduct of SiCl4 decomposition, gaseous HCl. […]

HeLa cells = test: Apoptosis assay (TUNEL / Annexin V) of HeLa cells on inhibitor-coated Si NWs after actinomycin-D and TNF-α; conditions: Si NWs treated with 100 mM inhibitor; actinomycin-D 1 μg/mL, TNF-α 2 ng/mL; cells on uncoated NWs died
Method: The silanized Si NWs (produced via CVD prior to silanization) were treated with 100 mM Ac-DEVD-CHO, an apoptosis inhibitor, in PBS at room temperature for 1 hr, and washed in PBS three times for 2 min each. HeLa cells (5×10^4 cells/mL) in DMEM media were added onto the Si NWs, and cultured in a CO2 incubator at 37° C. overnight. The cell treated Si NWs were then transferred into a fresh DMEM media containing actinomycin-D at the final concentration of 1 μg/mL, and incubated in a CO2 incubator at 37° C. for 30 min, followed by addition of TNF-α at the final concentration of 2 ng/mL. After incubation in CO2 incubator at 37° C. for indicated hours, the cells on the Si NWs were assayed for apoptosis.
Cells were analyzed for apoptosis by the Terminal Deoxynucleotide Transferase dUTP Nick End Labeling (TUNEL) assay or by the Annexin V assay. TUNEL staining was performed using the apoptosis detection kit according to the manufacturer's protocol with minor modifications. […] After blocking, streptavidin-Cy3 at 20 μg/mL and WGA Alexa Fluor 488 at 50 μg/mL were incubated with the Si NWs for 30 min at room temperature, and washed in PBC three times for 5 min each, followed by examination under a fluorescence microscope. […] After incubation for 15 min at room temperature and washes in binding buffer three times for 1 min each, cells were analyzed under a fluorescence microscope.

[2] = test system: Mouse embryonic stem cells (mES cells); test: Si NW delivery into mouse embryonic stem cells; conditions: delivered by Si NWs
Method: Mouse embryonic stem cells (mES cells) were also used in this study. Delivery of molecules (including Cre Recombinase proteins) into mES cells was carried out in a manner similar to that described in Example 3.

What does the source list for Nc1ccn([C@@H]2O[C@H](CO)[C@@H](O)[C@@H]2O)c(=O)n1 [Ara-C, Cytarabine]?
proliferation of glial-like cell plated atop Ara-C coated NWs ([1]; Ara-C 1 mg/mL, 5 uL coated on silanized CVD Si NWs, examined on sixth day): survived but did not proliferate; cell type mixture in regions containing NWs ([1]; Ara-C coated NWs, regions without NWs showed only mitotic cell types, sixth day): neuron heavy

For Ac-DEVD-CHO, which “cell survival after apoptosis induction” value (HeLa cells) is on record?
Its value is “survived”.

B1: Cre Recombinase proteins: Cre Recombinase proteins delivered by Si NWs into mES cells (protein, UniProt P06956 1-343, looked up)
Recombinase cre: MSNLLTVHQNLPALPVDATSDEVRKNLMDMFRDRQAFSEHTWKMLLSVCRSWAAWCKLNNRKWFPAEPEDVRDYLLYLQARGLAVKTIQQHLGQLNMLHRRSGLPRPSDSNAVSLVMRRIRKENVDAGERAKQALAFERTDFDQVRSLMENSDRCQDIRNLAFLGIAYNTLLRIAEIARIRVKDISRTDGGRMLIHIGRTKTLVSTAGVEKALSLGVTKLVERWISVSGVADDPNNYLFCRVRKNGVAAPSATSQLSTRALEGIFEATHRLIYGAKDDSGQRYLAWSGHSARVGAARDMARAGVSIPEIMQAGGWTNVNIVMNYIRNLDSETGAMVRLLEDGD
With B1 as the molecule, how does the “EGFP expression in transgenic foxed-eGFP mES cells” value [2] read?
Its value is “expressed EGFP”.
